Results: ChEMBL document CHEMBL1201862, “PubChem BioAssay data set” (2004)
Calls of active or inactive are those of the source.

Assays:
[1] = NIH-3T3 fibroblast cytotoxicity, dose response, cytotoxicity control, cell-based, fluorescence, Alamar Blue, secondary assay (AID 2327); type: functional;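 also: NIH-3T3 mouse fibroblasts cultured with fluconazole at 8 µg/mL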
[2] = C. albicans growth with fluconazole, confirmation, fluorescence, retest (AID 2467); type: functional, cell-based
[3] = target: T1, Sphingosine 1-phosphate receptor 4 (Homo sapiens, UniProt O95977); assay: Fluorescence dose response cell-based high throughput screening assay for antagonists of the Sphingosine 1-Phosphate Receptor 4 (S1P4). [Related pubchem assays: 1524 (Confirmation in triplicates.), 1510 (Primary screen.)]; type: functional
T1 sequence (O95977 whole entry): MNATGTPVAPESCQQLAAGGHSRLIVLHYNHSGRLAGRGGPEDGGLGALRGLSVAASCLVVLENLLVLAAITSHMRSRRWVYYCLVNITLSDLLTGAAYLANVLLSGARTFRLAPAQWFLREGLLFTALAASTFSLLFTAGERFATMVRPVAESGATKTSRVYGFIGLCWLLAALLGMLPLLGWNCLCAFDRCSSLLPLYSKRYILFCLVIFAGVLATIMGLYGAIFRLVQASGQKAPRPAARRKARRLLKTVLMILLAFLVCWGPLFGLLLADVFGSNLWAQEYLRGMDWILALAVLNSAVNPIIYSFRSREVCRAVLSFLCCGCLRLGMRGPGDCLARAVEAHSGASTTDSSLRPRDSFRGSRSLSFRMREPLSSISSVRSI

[4] = target: Sphingosine 1-phosphate receptor 1 (Homo sapiens, UniProt P21453); type: functional;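 also: Tango beta-arrestin reporter U2OS cells stimulated with S1P near its EC80; inhibitor potency meaning antagonism of receptor activation by the natural agonist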
[5] = target: T2, Microphthalmia-associated transcription factor (Homo sapiens, UniProt O75030); assay: TRPM1 promoter luciferase signal decrease, dose response, MITF inhibitor project, cell-based, SK-MEL-5, cherry-picked, set 3 (AID 493073); type: functional
T2 sequence (O75030 whole entry): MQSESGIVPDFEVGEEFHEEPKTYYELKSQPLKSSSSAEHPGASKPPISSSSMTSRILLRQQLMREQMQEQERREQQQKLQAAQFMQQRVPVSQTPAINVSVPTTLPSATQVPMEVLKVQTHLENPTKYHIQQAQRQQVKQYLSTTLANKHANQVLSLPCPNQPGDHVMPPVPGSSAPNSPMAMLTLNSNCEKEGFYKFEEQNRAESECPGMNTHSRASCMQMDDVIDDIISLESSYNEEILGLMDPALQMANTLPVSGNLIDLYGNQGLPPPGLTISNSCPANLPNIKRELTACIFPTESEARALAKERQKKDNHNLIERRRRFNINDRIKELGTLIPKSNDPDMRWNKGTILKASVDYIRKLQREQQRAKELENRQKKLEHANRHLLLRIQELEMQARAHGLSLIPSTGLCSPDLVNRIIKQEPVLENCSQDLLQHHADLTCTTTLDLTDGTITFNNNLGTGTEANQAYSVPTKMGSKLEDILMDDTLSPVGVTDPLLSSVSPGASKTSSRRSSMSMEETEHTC

HEK293 [6] = assay: cytotoxicity in HEK293T NF-kB-Luc cells, SAR follow-up, cytotoxicity control for NF-kB activator project, cell-based, resazurin fluorescence (AID 493251); type: functional; conditions: Homo sapiens
Jurkat [7] = assay: SAR Analysis of small molecule inhibitors of T-cell specific antigen receptor-induced NF-kB activation in a Jurkat cell line using a luminescence assay - Set 2. [Related pubchem assays (depositor defined):AID435003, AID435012, AID465]; type: functional, cell-based; conditions: Homo sapiens
HEK293 [8] = assay: SAR Analysis of small molecule inhibitors of T-cell specific antigen receptor-induced NF-kB activation in a HEK-293T cell line using a luminescence assay - Set 2. [Related pubchem assays (depositor defined):AID435003, AID435012, AID489026]; type: functional, cell-based; conditions: Homo sapiens
[9] = target: Nuclear receptor subfamily 5 group A member 2 (Homo sapiens, UniProt O00482); type: functional, cell-based;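 also: HEK293T cells transfected with LRH-1 and a StAR promoter luciferase reporter; potency for inhibitors that lower LRH-1 driven reporter light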
Steroidogenic factor 1 = Steroidogenic factor 1 (Homo sapiens, UniProt Q13285); assay: Counterscreen for inverse agonists of the liver receptor homolog-1 (LRH-1; NR5A2): Luminescence-based cell-based high throughput dose response assay to identify inverse agonists of the Steroidogenic Factor 1 Nuclear Receptor (SF1; NR5A1).; type: functional
[10] = StAR promoter reporter inhibition counter-screen, dose response, counter-screen for LRH-1 inverse agonist project, cell-based, luminescence, luciferase reporter (AID 651969); type: functional
[11] = target: SWI/SNF-related matrix-associated actin-dependent regulator of chromatin subfamily A member 2 (Homo sapiens, UniProt P51531); assay: Luminescence-based cell-based high throughput dose response assay to identify activators of the function of SWI/SNF related, matrix associated, actin dependent regulator of chromatin, subfamily a, member 2 (SMARCA2, BRM).; type: functional
[12] = Counterscreen for activators of the function of SWI/SNF related, matrix associated, actin dependent regulator of chromatin, subfamily a, member 2 (SMARCA2, BRM): Luminescence-based cell-based high throughput dose response assay to identify non-selective compounds using the VP16 reporter assay.; type: functional
Paired box protein Pax-8 = Paired box protein Pax-8 (Homo sapiens, UniProt Q06710); assay: inhibitors of PAX8-driven TPO luciferase reporter, dose response, RMG-I cells, cherry-pick (AID 687027); type: functional, cell-based;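 also: luciferase reporter driven by Pax8 target thyroperoxidase promoter measured by SteadyGlo luminescence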
[13] = target: T3, RNA-binding protein pos-1 (Caenorhabditis elegans, UniProt G5EF15); assay: inhibitors of POS-1/mex-3 RNA binding, dose response, biochemical, fluorescence polarization (AID 1964);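 also: purified POS-1 fused to maltose binding protein made in E. coli; potency of compounds blocking POS-1 binding to fluorescent RNA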
T3 sequence (G5EF15 whole entry): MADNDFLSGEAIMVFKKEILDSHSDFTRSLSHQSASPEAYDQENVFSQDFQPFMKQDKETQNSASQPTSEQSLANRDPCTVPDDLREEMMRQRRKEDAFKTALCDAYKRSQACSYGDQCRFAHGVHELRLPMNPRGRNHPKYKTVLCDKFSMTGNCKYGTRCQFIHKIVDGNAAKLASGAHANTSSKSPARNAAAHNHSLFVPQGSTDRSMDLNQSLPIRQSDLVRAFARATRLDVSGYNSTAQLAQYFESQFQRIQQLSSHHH

[14] = target: T4, Zinc finger protein mex-5 (Caenorhabditis elegans, UniProt Q9XUB2); assay: MEX-5/TCR-2 RNA interaction inhibitors, dose response, biochemical, C. elegans, fluorescence polarization (AID 1960)
T4 sequence (Q9XUB2 whole entry): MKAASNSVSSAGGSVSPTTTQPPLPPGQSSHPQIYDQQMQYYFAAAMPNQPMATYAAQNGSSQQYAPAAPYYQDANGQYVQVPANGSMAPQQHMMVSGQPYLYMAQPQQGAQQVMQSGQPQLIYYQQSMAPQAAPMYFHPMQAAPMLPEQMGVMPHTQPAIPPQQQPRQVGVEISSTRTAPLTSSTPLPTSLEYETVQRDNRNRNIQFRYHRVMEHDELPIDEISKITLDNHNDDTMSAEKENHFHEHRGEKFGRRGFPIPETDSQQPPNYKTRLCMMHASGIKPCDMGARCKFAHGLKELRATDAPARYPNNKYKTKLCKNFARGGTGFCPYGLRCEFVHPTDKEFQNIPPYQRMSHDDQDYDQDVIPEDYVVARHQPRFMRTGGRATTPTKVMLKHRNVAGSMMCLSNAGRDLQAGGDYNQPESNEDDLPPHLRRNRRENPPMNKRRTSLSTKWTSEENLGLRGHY

DNA topoisomerase = DNA topoisomerase (Yersinia pestis, UniProt A0A2S9PM60); assay: Y. pestis Topo-I inhibitors, cleavage product readout, dose response, biochemical, cherry-pick (AID 588525)
Genome polyprotein = Genome polyprotein (dengue virus type 2, UniProt P29990); assay: Dengue-2 NS5 methyltransferase inhibitors, primary screen, biochemical, confirmation dose response (AID 588689); type: functional
Cysteine protease ATG4B = Cysteine protease ATG4B (Homo sapiens, UniProt Q9Y4P1); type: functional;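 also: Fluorescence-based dose-response confirmation assay measuring inhibition of ATG4B activity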
Phospholipase A2 = Phospholipase A2 (Homo sapiens, UniProt P04054); type: functional;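 also: confirmatory dose-response counterscreen on phospholipase A2, testing hits that came from an ultra-high-throughput screen for ATG4B inhibitors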
[15] = target: T5, Beta-adrenergic receptor kinase 1 (Homo sapiens, UniProt P25098); assay: aptamer displacement from bead-bound GRK2 – biochemical, cherry pick 1, bead flow cytometry, dose response (AID 504500)
[16] = target: T5, Beta-adrenergic receptor kinase 1; assay: Inhibitors of aptamer binding to bead-bound beta-adrenergic receptor kinase 1 by flow cytometry, biochemical, cherry pick 2, EC50 (AID 504815)
[17] = target: T6, Carboxy-terminal domain RNA polymerase II polypeptide A small phosphatase 1 (Homo sapiens, UniProt Q9GZU7); assay: inhibitors of CTDSP1, concentration-response testing, biochemical assay, absorbance-based, actives from ultra-high-throughput screening (AID 540297); type: functional
T6 sequence (Q9GZU7 whole entry): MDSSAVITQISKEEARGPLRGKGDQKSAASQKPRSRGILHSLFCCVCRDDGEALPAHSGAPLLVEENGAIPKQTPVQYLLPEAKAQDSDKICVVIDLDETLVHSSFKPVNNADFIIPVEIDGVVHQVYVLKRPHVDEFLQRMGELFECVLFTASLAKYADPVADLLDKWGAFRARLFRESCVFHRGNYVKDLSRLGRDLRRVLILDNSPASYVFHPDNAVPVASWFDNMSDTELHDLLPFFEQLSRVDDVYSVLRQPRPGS

[18] = insulin promoter down-regulators in MIN6 cells, imaging, high-content screening, mouse beta cells (AID 1628); type: functional
cells [19] = type: functional, cell-based
[20] = cytotoxicity in MIN6 insulinoma cells, dose response, cytotoxicity control, cell-based, mouse insulinoma (AID 2122); type: functional;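 also: confirmatory high-throughput counterscreen run to flag cytotoxic compounds; mouse MIN-6 beta cells carrying an insulin promoter eGFP reporter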
[21] = inhibitors of intracellular T. cruzi replication, confirmation, NIH3T3 host cells, beta-gal luminescence (AID 2044); type: functional, cell-based;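 also: intracellular parasites grown in NIH/3T3 mouse fibroblasts as host cells; luminescent beta-galactosidase reporter signal from transgenic T. cruzi replicating inside host cells; inhibitors lower the luminescence signal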
cells [22] = type: functional, cell-based; remark: listed apart in the source
[23] = target: Serine/threonine-protein phosphatase (Candida dubliniensis (strain CD36 / CBS 7987 / NCPF 3949 / NRRLY-17841) (Yeast), UniProt B9W6M3); assay: calcineurin pathway inhibitors in yeast reporter, dose response, S. cerevisiae, CDRE-lacZ, luminescence, secondary (AID 2388); type: functional, cell-based;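 also: yeast reporter cells carrying a calcineurin-responsive lacZ construct stimulated with calcium chloride; luminescent beta-galactosidase reporter signal in whole cells rather than isolated phosphatase activity; potency for inhibition where a drop in reporter signal means calcineurin blockade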
[24] = cytotoxicity toward NIH3T3 fibroblasts, dose response, counter-screen, cell-based, ATP luminescence, mouse fibroblasts (AID 2010); type: functional;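 also: cells exposed to compound for about 90 hours before reading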
Exodeoxyribonuclease V = Exodeoxyribonuclease V (Escherichia coli (strain K12), UniProt P04993+P07648+P08394); assay: E. coli RecBCD inhibitors, dose response, counter-screen for AddAB inhibitor project, absorbance, V66 E. coli, mutant T4 phage (AID 492957); type: functional, cell-based, Escherichia coli str. K-12 substr. MG1655
[25] = cytotoxicity in HEK-293T cells, dose response, cytotoxicity control for TCR NF-kB inhibitor project, luminescence, T-cell screen hits (AID 489026); type: functional, cell-based;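 also: cells exposed to compound about 14 hours before the viability readout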
[26] = Counterscreen for AddAB inhibitors: absorbance-based bacterial cell-based high throughput dose response assay for inhibitors of bacterial viability. [Related pubchem assays (depositor defined):AID435030, AID449728, AID449731, AID488942, AID488955, AID488956]; type: functional
[27] = target: Heat shock protein HSP 90-alpha (Homo sapiens, UniProt P07900); type: functional, organism-based
Jurkat [28] = assay: SAR Analysis of small molecule inhibitors of T-cell specific antigen receptor-induced NF-kB activation in a Jurkat cell line using a luminescence assay. [Related pubchem assays (depositor defined):AID435003, AID435012, AID465]; type: functional, cell-based; conditions: Homo sapiens
INS1 = assay: beta cell apoptosis inhibitors, cytokine rescue, dose response, luminescence, retest (AID 449756); type: functional, cell-based; conditions: Rattus norvegicus;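 also: cell death triggered by IL-1 beta plus TNF-alpha plus IFN-gamma mixture; protective hits raise ATP signal compared with cytokine alone wells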
HEK293 [29] = assay: SAR Analysis of small molecule inhibitors of T-cell specific antigen receptor-induced NF-kB activation in a HEK-293T cell line using a luminescence assay. [Related pubchem assays (depositor defined):AID435003, AID435012, AID489026]; type: functional, cell-based; conditions: Homo sapiens
[30] = target: ATP-dependent molecular chaperone HSP82 (Candida albicans (strain WO-1) (Yeast), UniProt C4YTQ8); assay: loss of DOC-induced GRE-beta-galactosidase reporter signal, dose response, Hsp90 inhibitor project, S. cerevisiae, luminescence (AID 2400); type: functional, cell-based;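 also: beta-galactosidase luminescence from glucocorticoid response element reporter as proxy for Hsp90 function; inhibitor potency where signal loss means Hsp90 inhibition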
[31] = Shn3 3'UTR reporter inhibitors, dose response, cell-based, Clone20 osteoblasts, firefly luciferase, cherry-picked (AID 624132); type: functional;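 also: firefly luciferase luminescence from reporter carrying the Shn3 3'UTR in osteoblasts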
[32] = HepG2 cell cytotoxicity, dose response, cytotoxicity control for Shn3 inhibitor project, CellTiter-Glo, cherry-picked (AID 624134); type: functional, cell-based
[33] = control 3'UTR Renilla luciferase suppression, dose response, counter-screen for Shn3 inhibitor project, cell-based, Clone20-Shn3RL, cherry-picked (AID 624133); type: functional

T5 sequence (P25098 whole entry): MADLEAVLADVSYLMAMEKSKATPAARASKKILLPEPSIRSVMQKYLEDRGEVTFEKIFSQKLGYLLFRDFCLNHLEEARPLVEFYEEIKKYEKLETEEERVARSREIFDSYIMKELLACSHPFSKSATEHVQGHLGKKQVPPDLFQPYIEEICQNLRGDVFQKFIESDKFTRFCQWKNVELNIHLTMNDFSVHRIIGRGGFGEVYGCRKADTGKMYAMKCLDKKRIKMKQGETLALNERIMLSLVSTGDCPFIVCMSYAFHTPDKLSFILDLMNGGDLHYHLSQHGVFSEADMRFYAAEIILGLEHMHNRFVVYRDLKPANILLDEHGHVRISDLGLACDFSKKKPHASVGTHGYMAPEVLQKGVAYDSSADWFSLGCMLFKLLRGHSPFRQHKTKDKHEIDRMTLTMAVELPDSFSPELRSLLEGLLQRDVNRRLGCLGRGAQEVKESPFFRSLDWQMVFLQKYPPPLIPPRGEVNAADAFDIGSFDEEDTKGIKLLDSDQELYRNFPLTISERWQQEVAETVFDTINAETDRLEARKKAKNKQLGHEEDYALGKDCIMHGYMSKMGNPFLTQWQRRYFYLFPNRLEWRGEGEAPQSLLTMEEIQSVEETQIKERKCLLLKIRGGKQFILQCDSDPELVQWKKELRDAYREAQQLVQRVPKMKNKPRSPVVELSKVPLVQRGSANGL
Sequence of Steroidogenic factor 1 (Q13285 whole entry): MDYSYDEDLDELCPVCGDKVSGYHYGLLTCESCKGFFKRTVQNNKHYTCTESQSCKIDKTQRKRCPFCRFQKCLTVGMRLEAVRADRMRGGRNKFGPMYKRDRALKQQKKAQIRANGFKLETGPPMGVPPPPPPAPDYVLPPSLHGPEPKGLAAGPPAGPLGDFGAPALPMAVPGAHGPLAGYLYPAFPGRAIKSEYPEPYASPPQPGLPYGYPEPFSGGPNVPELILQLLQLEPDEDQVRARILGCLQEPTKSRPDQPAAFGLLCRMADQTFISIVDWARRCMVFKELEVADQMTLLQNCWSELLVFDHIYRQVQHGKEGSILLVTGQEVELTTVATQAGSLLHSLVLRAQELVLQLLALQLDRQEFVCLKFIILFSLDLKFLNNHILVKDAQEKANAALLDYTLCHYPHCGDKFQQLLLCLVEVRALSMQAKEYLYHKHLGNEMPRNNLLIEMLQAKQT
Sequence of ATP-dependent molecular chaperone HSP82 (C4YTQ8 whole entry): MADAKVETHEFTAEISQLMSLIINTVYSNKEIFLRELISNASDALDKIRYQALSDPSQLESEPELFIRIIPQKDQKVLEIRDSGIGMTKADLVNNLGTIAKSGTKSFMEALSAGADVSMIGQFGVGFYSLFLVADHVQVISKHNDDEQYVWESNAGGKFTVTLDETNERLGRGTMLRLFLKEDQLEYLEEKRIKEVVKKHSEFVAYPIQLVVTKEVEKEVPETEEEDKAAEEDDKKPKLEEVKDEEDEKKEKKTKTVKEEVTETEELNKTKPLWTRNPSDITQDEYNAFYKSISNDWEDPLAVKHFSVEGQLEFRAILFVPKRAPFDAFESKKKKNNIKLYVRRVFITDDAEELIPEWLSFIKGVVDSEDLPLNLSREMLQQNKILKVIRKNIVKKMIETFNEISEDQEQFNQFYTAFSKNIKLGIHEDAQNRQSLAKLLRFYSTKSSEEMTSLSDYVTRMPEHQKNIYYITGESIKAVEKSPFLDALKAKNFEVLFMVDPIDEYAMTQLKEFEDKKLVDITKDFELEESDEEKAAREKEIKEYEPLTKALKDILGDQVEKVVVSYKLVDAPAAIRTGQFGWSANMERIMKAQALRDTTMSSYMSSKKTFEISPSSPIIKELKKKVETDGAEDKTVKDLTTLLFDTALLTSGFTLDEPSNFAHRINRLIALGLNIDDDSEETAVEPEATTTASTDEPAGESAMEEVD
Sequence of Serine/threonine-protein phosphatase (B9W6M3 whole entry): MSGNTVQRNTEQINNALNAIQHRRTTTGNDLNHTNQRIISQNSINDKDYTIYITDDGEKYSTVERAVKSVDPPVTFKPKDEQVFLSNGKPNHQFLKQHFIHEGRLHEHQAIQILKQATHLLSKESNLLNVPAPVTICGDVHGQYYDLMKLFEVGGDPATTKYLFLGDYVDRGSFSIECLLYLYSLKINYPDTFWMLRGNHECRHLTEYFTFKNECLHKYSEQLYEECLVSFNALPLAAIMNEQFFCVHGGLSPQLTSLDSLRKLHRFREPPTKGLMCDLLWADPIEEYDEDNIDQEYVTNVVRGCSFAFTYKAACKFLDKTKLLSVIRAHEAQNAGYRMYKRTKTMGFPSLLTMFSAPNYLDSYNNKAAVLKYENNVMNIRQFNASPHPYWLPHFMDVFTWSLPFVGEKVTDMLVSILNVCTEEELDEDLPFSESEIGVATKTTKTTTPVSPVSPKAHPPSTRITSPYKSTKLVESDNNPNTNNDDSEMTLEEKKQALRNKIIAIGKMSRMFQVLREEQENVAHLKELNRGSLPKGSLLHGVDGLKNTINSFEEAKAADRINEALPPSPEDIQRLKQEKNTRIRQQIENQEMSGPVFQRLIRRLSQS
Sequence of Genome polyprotein (P29990 2492-3391 limits assumed): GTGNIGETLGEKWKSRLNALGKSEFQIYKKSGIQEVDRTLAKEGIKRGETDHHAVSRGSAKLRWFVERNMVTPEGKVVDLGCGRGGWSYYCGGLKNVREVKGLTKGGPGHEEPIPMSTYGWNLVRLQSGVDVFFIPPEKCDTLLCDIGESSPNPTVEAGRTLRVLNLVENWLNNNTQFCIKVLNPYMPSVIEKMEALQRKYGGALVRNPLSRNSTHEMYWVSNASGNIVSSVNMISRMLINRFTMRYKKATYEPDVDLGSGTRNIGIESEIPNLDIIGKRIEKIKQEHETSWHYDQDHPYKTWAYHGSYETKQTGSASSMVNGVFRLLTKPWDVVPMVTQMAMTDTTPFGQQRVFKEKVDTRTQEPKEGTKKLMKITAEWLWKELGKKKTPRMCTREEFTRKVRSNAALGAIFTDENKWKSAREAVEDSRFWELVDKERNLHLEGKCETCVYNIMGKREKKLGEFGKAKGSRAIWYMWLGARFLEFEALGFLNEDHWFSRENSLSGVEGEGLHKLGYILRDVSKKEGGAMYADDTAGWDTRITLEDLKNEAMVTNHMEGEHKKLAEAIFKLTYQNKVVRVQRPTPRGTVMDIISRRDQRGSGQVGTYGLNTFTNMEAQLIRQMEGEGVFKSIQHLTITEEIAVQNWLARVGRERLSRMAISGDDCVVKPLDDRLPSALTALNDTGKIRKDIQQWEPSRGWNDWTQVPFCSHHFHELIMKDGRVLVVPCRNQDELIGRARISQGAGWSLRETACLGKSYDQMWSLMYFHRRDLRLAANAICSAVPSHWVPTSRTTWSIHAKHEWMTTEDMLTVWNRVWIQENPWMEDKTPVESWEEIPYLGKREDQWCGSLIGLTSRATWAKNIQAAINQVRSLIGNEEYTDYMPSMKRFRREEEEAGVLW
Sequence of Sphingosine 1-phosphate receptor 1 (P21453 whole entry): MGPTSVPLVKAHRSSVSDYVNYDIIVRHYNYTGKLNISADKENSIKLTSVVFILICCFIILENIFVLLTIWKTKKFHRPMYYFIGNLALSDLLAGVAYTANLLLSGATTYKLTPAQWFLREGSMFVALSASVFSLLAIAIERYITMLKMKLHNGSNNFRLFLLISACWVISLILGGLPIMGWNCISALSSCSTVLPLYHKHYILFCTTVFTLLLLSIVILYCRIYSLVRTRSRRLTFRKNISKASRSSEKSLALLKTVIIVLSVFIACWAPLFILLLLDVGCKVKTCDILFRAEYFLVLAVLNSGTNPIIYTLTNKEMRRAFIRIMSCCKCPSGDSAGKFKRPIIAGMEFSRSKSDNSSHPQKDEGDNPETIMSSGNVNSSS
Sequence of Cysteine protease ATG4B (Q9Y4P1 whole entry): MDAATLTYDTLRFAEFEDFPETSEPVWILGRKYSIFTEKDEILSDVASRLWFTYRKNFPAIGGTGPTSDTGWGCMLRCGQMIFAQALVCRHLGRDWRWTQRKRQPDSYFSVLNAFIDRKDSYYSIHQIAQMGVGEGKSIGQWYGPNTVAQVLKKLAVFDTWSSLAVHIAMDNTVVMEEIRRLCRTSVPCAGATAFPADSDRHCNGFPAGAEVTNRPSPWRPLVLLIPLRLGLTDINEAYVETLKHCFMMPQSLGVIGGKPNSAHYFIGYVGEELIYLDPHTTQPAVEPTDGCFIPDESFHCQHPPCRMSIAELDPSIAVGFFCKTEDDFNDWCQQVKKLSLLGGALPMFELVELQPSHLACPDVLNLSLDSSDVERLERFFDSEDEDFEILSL
Sequence of DNA topoisomerase (A0A2S9PM60 whole entry): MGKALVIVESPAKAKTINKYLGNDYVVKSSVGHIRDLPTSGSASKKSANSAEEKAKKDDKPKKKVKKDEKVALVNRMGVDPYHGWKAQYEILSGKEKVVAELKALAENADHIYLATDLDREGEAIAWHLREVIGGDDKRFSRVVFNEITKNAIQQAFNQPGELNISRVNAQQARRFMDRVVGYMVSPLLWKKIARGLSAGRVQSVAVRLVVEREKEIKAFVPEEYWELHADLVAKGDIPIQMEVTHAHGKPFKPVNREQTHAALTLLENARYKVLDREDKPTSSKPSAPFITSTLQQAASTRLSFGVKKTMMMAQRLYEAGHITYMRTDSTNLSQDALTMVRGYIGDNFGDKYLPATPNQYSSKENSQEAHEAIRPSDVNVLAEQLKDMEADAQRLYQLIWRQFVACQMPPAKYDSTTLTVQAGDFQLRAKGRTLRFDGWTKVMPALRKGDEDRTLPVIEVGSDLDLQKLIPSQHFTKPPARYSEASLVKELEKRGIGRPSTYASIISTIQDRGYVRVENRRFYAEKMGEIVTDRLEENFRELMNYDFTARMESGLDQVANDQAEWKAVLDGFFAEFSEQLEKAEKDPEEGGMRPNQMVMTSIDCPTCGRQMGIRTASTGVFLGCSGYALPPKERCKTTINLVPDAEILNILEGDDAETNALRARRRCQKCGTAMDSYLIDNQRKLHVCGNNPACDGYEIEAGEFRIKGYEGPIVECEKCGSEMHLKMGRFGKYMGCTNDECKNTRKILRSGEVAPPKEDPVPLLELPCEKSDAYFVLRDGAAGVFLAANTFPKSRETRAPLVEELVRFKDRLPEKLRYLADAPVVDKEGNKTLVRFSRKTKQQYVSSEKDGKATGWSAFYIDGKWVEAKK

Cc1cc(NC(=O)c2ccc([N+](=O)[O-])o2)ccc1NC(=O)c1ccco1
active: IC50 [3] 1.87 µM | AC50 [5] 7.8 µM | IC50 (Steroidogenic factor 1) 766 nM | AC50 (Paired box protein Pax-8) 5.2 µM
11.5 µM (not active): IC50 [4]
inconclusive: EC50 [1] 4.78 µM
> 38 µM (not active): EC50 [2]
inactive: IC50 (HEK293 [6]) 42.4 µM | IC50 (Jurkat [7]) 31.1 µM | IC50 (HEK293 [8]) 27 µM | IC50 [9] 35.9 µM | IC50 [10] 35.9 µM | EC50 [11] > 91.2 µM | EC50 [12] > 91.2 µM

C=CCOc1cccc(C2C(C(=O)c3cc4ccccc4o3)=C(O)C(=O)N2c2cc(C)on2)c1 (stereo not given)
active: EC50 [14] 80.5 µM | AC50 (DNA topoisomerase) 7.35 µM | IC50 (Genome polyprotein) 48.6 µM
> 300 µM (not active): EC50 [13]

CCCCCCCCCCCCCCCCCCNc1ccn(C2OC(COP(=O)(O)OCC3OC(n4cc(F)c(=O)[nH]c4=O)CC3O)C(O)C2O)c(=O)n1 (stereo not given)
active: IC50 (Cysteine protease ATG4B) 10.8 µM | IC50 (Phospholipase A2) 9.09 µM

CCc1cccc(NC(=O)CCS(=O)(=O)c2ccc(Br)cc2)c1
active: EC50 [16] 6.25 µM | IC50 [17] 6.99 µM
inactive: EC50 [15] 58.3 µM

CCCC(=O)NC(c1ccc(OC)cc1)c1ccc2cccnc2c1O (stereo not given)
> 350 µM (not active): EC50 (cells [22])
inactive: EC50 [23] > 180 µM | IC50 (Exodeoxyribonuclease V) > 119 µM | IC50 [25] > 80 µM | IC50 [26] > 119 µM | EC50 [30] > 160 µM
active: EC50 [1] 41.4 µM | IC50 [18] 1.23 µM | EC50 (cells [19]) 6.31 µM | IC50 [20] 1.52 µM | EC50 [2] 0.349 µM | EC50 [21] 527 nM | EC50 [24] 1.4 µM | AC50 [27] 4.08 µM | IC50 (Jurkat [7]) 3.11 µM | IC50 (Jurkat [28]) 2.96 µM | IC50 (HEK293 [8]) 3.64 µM | AC50 (INS1) 696 nM | IC50 (HEK293 [29]) 4.92 µM | AC50 [31] 1.18 µM | AC50 [32] 2.33 µM | AC50 [33] 1.08 µM
